# From US10736883B2, “Triazole furan compounds as agonists of the APJ receptor” (AMGEN INC., priority 2016, dated 2020)
# Target: APJ receptor (Homo sapiens (Human), UniProt P35414)
# Test: [35S]GTPγS binding assay on membranes from CHO cells stably expressing human APJ receptor
# Type: biochemical
# Conditions: membranes of CHO cells stably expressing human APJ receptor, means of several independent experiments, read-out: Activity hAPJ SPA EC50 IP
# Method in brief: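 Membranes from CHO cells stably expressing human APJ were incubated with 0.2 nM [35S]GTPγS and ligands for 90 min at RT in 20 mM HEPES pH 7.5, 5 mM MgCl2, 200 mM NaCl, 3 μM GDP, 0.1% BSA with WGA PS beads. Nonspecific binding was set with 100 μM GTPγS. EC50 came from non-linear regression.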
# Chain of APJ receptor (P35414 whole entry): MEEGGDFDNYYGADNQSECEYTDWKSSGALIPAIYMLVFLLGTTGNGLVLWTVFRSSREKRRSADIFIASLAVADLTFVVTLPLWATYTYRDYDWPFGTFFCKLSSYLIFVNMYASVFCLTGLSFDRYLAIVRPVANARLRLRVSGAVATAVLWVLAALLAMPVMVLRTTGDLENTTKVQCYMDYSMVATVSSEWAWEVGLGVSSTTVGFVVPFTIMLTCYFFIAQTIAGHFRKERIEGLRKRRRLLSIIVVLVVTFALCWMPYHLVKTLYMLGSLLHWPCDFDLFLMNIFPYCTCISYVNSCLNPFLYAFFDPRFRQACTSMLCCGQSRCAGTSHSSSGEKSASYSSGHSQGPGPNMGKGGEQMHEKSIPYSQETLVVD
row,EC50 [nM],Structure (SMILES)
1,0.24,"COc1cccc(OC)c1-n1c(NS(=O)(=O)C[C@@H](C)c2ncc(F)cn2)nnc1-c1ccc(C)o1 (single isomer, unassigned) [Example 123.0, (S)—N-(4-(2,6-Dimethoxyphenyl)-5-(5-methylfuran-2-yl)-4H-1,2,4-triazol-3-yl)-2-(5-fluoropyrimidin-2-yl)propane-1-sulfonamide or (R)—N-(4-(2,6-dimethoxyphenyl)-5-(5-methylfuran-2-yl)-4H-1,2,4-triazol-3-yl)-2-(5-fluoropyrimidin-2-yl)propane-1-sulfonamide]"
2,0.45,"COc1cccc(OC)c1-n1c(NS(=O)(=O)C[C@@H](C)c2ncc(F)cn2)nnc1-c1ccc(C)o1 (single isomer, unassigned) [Example 126.0, (S)—N-(4-(2,6-Dimethoxyphenyl)-5-(5-methylfuran-2-yl)-4H-1,2,4-triazol-3-yl)-2-(5-fluoropyrimidin-2-yl)propane-1-sulfonamide or (R)—N-(4-(2,6-dimethoxyphenyl)-5-(5-methylfuran-2-yl)-4H-1,2,4-triazol-3-yl)-2-(5-fluoropyrimidin-2-yl)propane-1-sulfonamide]"
3,19,"CC[C@H](Cc1ncc(F)cn1)S(=O)(=O)Nc1nnc(-c2ccco2)n1-c1c(OC)cccc1OC (single isomer, unassigned) [Example 136.0, (R)—N-(4-(2,6-Dimethoxyphenyl)-5-(furan-2-yl)-4H-1,2,4-triazol-3-yl)-1-(5-fluoropyrimidin-2-yl)butane-2-sulfonamide or (S)—N-(4-(2,6-dimethoxyphenyl)-5-(furan-2-yl)-4H-1,2,4-triazol-3-yl)-1-(5-fluoropyrimidin-2-yl)butane-2-sulfonamide]"
4,0.072,"COc1cccc(OC)c1-n1c(NS(=O)(=O)[C@H](C)[C@@H](OC)c2ccc(C#N)cc2C#N)nnc1-c1ccc(C)o1 (single isomer, unassigned) [Example 143.0, (1S,2R)-1-(2,4-Dicyanophenyl)-N-(4-(2,6-dimethoxyphenyl)-5-(5-methyl-2-furanyl)-4H-1,2,4-triazol-3-yl)-1-methoxy-2-propanesulfonamide or (1R,2S)-1-(2,4-dicyanophenyl)-N-(4-(2,6-dimethoxyphenyl)-5-(5-methyl-2-furanyl)-4H-1,2,4-triazol-3-yl)-1-methoxy-2-propanesulfonamide]"

row,Structure (SMILES),EC50 [nM]
1,"CCO[C@H](c1ncc(C)cn1)[C@@H](C)S(=O)(=O)Nc1nnc(-c2ccc(C)o2)n1-c1c(OC)cccc1OC (single isomer, unassigned) [Example 130.0, (1R,2R)-N-(4-(2,6-dimethoxyphenyl)-5-(5-methylfuran-2-yl)-4H-1,2,4-triazol-3-yl)-1-ethoxy-1-(5-methylpyrimidin-2-yl)propane-2-sulfonamide or (1S,2S)-N-(4-(2,6-dimethoxyphenyl)-5-(5-methylfuran-2-yl)-4H-1,2,4-triazol-3-yl)-1-ethoxy-1-(5-methylpyrimidin-2-yl)propane-2-sulfonamide]",3.5
2,"COc1cccc(OC)c1-n1c(NS(=O)(=O)[C@@H](C)[C@@H](OC)c2ncc(F)cn2)nnc1-c1ccc(C)o1 (single isomer, unassigned) [Example 132.0, (1S,2S)-N-(4-(2,6-dimethoxyphenyl)-5-(5-methylfuran-2-yl)-4H-1,2,4-triazol-3-yl)-1-(5-fluoropyrimidin-2-yl)-1-methoxypropane-2-sulfonamide or (1R,2R)-N-(4-(2,6-dimethoxyphenyl)-5-(5-methylfuran-2-yl)-4H-1,2,4-triazol-3-yl)-1-(5-fluoropyrimidin-2-yl)-1-methoxypropane-2-sulfonamide]",6.8
3,"CC[C@H](Cc1ncc(F)cn1)S(=O)(=O)Nc1nnc(-c2ccc(C)o2)n1-c1c(OC)cccc1OC (single isomer, unassigned) [Example 134.0, (R)—N-(4-(2,6-dimethoxyphenyl)-5-(5-methylfuran-2-yl)-4H-1,2,4-triazol-3-yl)-1-(5-fluoropyrimidin-2-yl)butane-2-sulfonamide or (S)—N-(4-(2,6-dimethoxyphenyl)-5-(5-methylfuran-2-yl)-4H-1,2,4-triazol-3-yl)-1-(5-fluoropyrimidin-2-yl)butane-2-sulfonamide]",10
